Laboratory results taken from article PMC3391563 (2011).
Like-named read-outs stand apart in the source and are kept apart here.

Key:
[1] = biological target: T1, Af-OMO (ornithine monooxygenase, SidA) (Aspergillus fumigatus, UniProt E9QYP0); assay: hydroxylation coupling ratio; type: biochemical
[2] = biological target: T1, Af-OMO (ornithine monooxygenase, SidA)
[3] = biological target: T1, Af-OMO (ornithine monooxygenase, SidA); assay: stopped-flow UV/vis, concentration dependence of kobs for FAD-OOH formation; type: biochemical
[4] = biological target: T1, Af-OMO (ornithine monooxygenase, SidA); assay: as above; type: biochemical; remark: listed apart in the source
[5] = biological target: T1, Af-OMO (ornithine monooxygenase, SidA); assay: stopped-flow UV/vis, concentration dependence of kobs; type: biochemical
[6] = biological target: T1, Af-OMO (ornithine monooxygenase, SidA); assay: as above; type: biochemical; remark: listed apart in the source
[7] = biological target: T1, Af-OMO (ornithine monooxygenase, SidA); assay: stopped-flow; type: biochemical

T1 sequence (E9QYP0 whole entry): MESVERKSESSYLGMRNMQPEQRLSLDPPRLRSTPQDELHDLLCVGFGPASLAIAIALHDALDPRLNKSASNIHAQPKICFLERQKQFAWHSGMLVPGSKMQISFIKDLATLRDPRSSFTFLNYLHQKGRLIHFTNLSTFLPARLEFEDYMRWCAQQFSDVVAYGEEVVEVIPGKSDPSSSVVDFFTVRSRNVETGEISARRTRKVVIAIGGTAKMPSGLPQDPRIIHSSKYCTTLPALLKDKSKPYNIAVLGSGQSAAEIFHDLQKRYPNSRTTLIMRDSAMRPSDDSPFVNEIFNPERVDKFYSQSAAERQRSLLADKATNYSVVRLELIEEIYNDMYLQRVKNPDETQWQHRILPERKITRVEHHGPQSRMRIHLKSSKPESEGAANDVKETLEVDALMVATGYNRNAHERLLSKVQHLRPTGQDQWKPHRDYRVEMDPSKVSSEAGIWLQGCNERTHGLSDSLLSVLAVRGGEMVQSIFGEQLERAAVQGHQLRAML

Question: With NCCC[C@@H](N)C(=O)O [D-Orn, D-ornithine] as the compound, how does the “compd-OH: NADPH ^c” value [1] read?
Answer: Its value is 0.63 (0.03).

Question: For NCCCCN [DAB, 1,4-diaminobutane], which “compd-OH: NADPH ^c” value [2] is on record?
Answer: The value was 0.59 (0.02).

Question: Which Kd [3] does the source give for N=C(N)NCCC[C@H](N)C(=O)O [L-Arg, L-arginine] here?
Answer: The Kd was 620 ± 70 µM.

Question: For NC(=O)NCCC[C@H](N)C(=O)O [L-Citr, L-citrulline], which Kd [4] is on record?
Answer: Its Kd is 4400 ± 900 µM.

Question: How did the Kd [5] turn out when NCCCC[C@H](N)C(=O)O [L-Lys, L-lysine] was run?
Answer: Its Kd is 130 ± 30 µM.

Question: Which Kd [6] does the source give for NCCC[C@H](N)C(=O)O [L-Orn, L-ornithine] here?
Answer: Its Kd is 310 ± 40 µM.

Question: Which “kFAD (s^-1)” value [7] does the source give for N[C@@H](CCCNO)C(=O)O [L-Orn-N^εOH, N^ε-hydroxy-L-ornithine] here?
Answer: The value was 0.34 (0.01) s^-1.
